Source: ChEMBL document CHEMBL3045434, “Synthesis, characterization, and biological evaluation of novel thiazole and pyrazole derivatives of quinoline-4-carboxylic acid as potential antimicrobial agents” (2013)
≈ marks a conversion by molar mass, not a printed value.

Key:
Format in all cases: functional
Aspergillus niger [1] = assay: Antifungal activity against Aspergillus niger MTCC 872 by disc diffusion method
Aspergillus fumigatus [2] = assay: Antifungal activity against Aspergillus fumigatus MTCC 343 by disk diffusion method
Candida albicans [3] = assay: Antifungal activity against Candida albicans ATCC 24433 by disk diffusion method
Pseudomonas aeruginosa [4] = assay: Antibacterial activity against Pseudomonas aeruginosa ATCC 25615 by disc diffusion method
Escherichia coli [5] = assay: Antibacterial activity against Escherichia coli MTCC 739 by disc diffusion method
Bacillus subtilis [6] = assay: Antibacterial activity against Bacillus subtilis ATCC 6633 by disk diffusion method
Staphylococcus aureus [7] = assay: Antibacterial activity against Staphylococcus aureus ATCC 9144 by disk diffusion method
Aspergillus niger [8] = assay: Antifungal activity against Aspergillus niger MTCC 872 by two-fold serial dilution method
Aspergillus fumigatus [9] = assay: Antifungal activity against Aspergillus fumigatus MTCC 343 by two-fold serial dilution method
Candida albicans [10] = assay: Antifungal activity against Candida albicans ATCC 24433 by two-fold serial dilution method
Pseudomonas aeruginosa [11] = assay: Antibacterial activity against Pseudomonas aeruginosa ATCC 25615 by two-fold serial dilution method
Escherichia coli [12] = assay: Antibacterial activity against Escherichia coli MTCC 739 by two-fold serial dilution method
Bacillus subtilis [13] = assay: Antibacterial activity against Bacillus subtilis ATCC 6633 by two-fold serial dilution method
Staphylococcus aureus [14] = assay: Antibacterial activity against Staphylococcus aureus ATCC 9144 by two-fold serial dilution method

Molecule	diameter of the inhibition zone (DIZ) (Aspergillus niger [1]) [mm]	diameter of the inhibition zone (DIZ) (Aspergillus fumigatus [2]) [mm]	diameter of the inhibition zone (DIZ) (Candida albicans [3]) [mm]	diameter of the inhibition zone (DIZ) (Pseudomonas aeruginosa [4]) [mm]	diameter of the inhibition zone (DIZ) (Escherichia coli [5]) [mm]	diameter of the inhibition zone (DIZ) (Bacillus subtilis [6]) [mm]	diameter of the inhibition zone (DIZ) (Staphylococcus aureus [7]) [mm]	MIC (Aspergillus niger [8]) [µg/mL]	MIC (Aspergillus fumigatus [9]) [µg/mL]	MIC (Candida albicans [10]) [µg/mL]	MIC (Pseudomonas aeruginosa [11]) [µg/mL]	MIC (Escherichia coli [12]) [µg/mL]	MIC (Bacillus subtilis [13]) [µg/mL]	MIC (Staphylococcus aureus [14]) [µg/mL]	inhibition zone (IZ) (Aspergillus niger [1]) [mm]	inhibition zone (IZ) (Pseudomonas aeruginosa [4]) [mm]	inhibition zone (IZ) (Escherichia coli [5]) [mm]	inhibition zone (IZ) (Bacillus subtilis [6]) [mm]	inhibition zone (IZ) (Staphylococcus aureus [7]) [mm]
Cc1ccc(-c2cc(C(=O)O)c3ccccc3[n+]2C/C(=N/N=C2/N=C(c3ccccc3)CS2)c2ccccc2)cc1.[I-]	7	8	17	8	11	9	14	> 100	> 100	25	> 100	> 100	> 100	25	–	–	–	–	–
Nc1ccc(C2=N/C(=N/N=C(/C[n+]3c(-c4ccccc4)cc(C(=O)O)c4ccccc43)c3ccccc3)SC2)cc1.[I-]	7	6	36	9	8	9	24	> 100	> 100	3.12	> 100	> 100	> 100	6.25	–	–	–	–	–
O=c1[nH]nc2c3c(c(-c4ccc(Cl)cc4)nc4ccccc43)c(-c3ccccc3)c(-c3ccccc3)n12	8	6	24	6	6	11	9	> 100	> 100	12.5 (≈ 25.1 µM)	> 100	> 100	> 100	> 100	–	–	–	–	–
Nc1ccc(C2=N/C(=N/N=C(/C[n+]3c(-c4ccc(Cl)cc4)cc(C(=O)O)c4ccccc43)c3ccccc3)SC2)cc1.[I-]	6	9	7	8	7	7	34	> 100	> 100	> 100	> 100	> 100	> 100	3.12	–	–	–	–	–
GENTAMICIN	–	–	–	–	–	–	–	–	–	–	–	25	–	6.25	18	23	20	22	22
S=c1[nH]nc2c3c(c(-c4ccccc4)nc4ccccc43)c(-c3ccccc3)c(-c3ccccc3)n12	6	7	8	8	18	21	8	> 100	> 100	> 100	> 100	50 (≈ 104 µM)	12.5 (≈ 26 µM)	> 100	–	–	–	–	–
O=c1[nH]nc2c3c(c(-c4ccccc4)nc4ccccc43)c(-c3ccccc3)c(-c3ccccc3)n12	6	12	6	12	21	8	8	> 100	25 (≈ 53.8 µM)	> 100	50 (≈ 108 µM)	25 (≈ 53.8 µM)	> 100	> 100	–	–	–	–	–
Cc1ccc(-c2cc(C(=O)O)c3ccccc3[n+]2C/C(=N/N=C2/N=C(c3ccc(N)cc3)CS2)c2ccccc2)cc1.[I-]	8	10	40	6	6	6	40	> 100	> 50	3.12	> 100	> 100	> 100	3.12	–	–	–	–	–
S=c1[nH]nc2c3c(c(-c4ccc(Cl)cc4)nc4ccccc43)c(-c3ccccc3)c(-c3ccccc3)n12	6	6	18	13	7	8	20	> 100	> 100	25 (≈ 48.5 µM)	50 (≈ 97.1 µM)	> 100	> 100	12.5 (≈ 24.3 µM)	–	–	–	–	–
O=C(O)c1cc(-c2ccc(Cl)cc2)[n+](C/C(=N/N=C2/N=C(c3ccccc3)CS2)c2ccccc2)c2ccccc12.[I-]	6	6	19	6	6	6	15	> 100	> 100	12.5	> 100	> 100	> 100	25	–	–	–	–	–
Cc1ccc(-c2nc3ccccc3c3c2c(-c2ccccc2)c(-c2ccccc2)n2c(=O)[nH]nc32)cc1	6	9	14	9	6	18	11	> 100	> 100	50 (≈ 104 µM)	> 100	> 100	50 (≈ 104 µM)	50 (≈ 104 µM)	–	–	–	–	–
Cc1ccc(-c2nc3ccccc3c3c2c(-c2ccccc2)c(-c2ccccc2)n2c(=S)[nH]nc32)cc1	7	6	6	6	6	19	6	> 100	> 100	> 100	> 100	> 100	25 (≈ 50.5 µM)	> 100	–	–	–	–	–
O=C(O)c1cc(-c2ccccc2)[n+](C/C(=N/N=C2/N=C(c3ccccc3)CS2)c2ccccc2)c2ccccc12.[I-]	14	12	10	9	9	10	18	12.5	25	> 50	> 100	> 100	> 100	25	–	–	–	–	–
OC(Cn1cncn1)(Cn1cncn1)c1ccc(F)cc1F [FLUCONAZOLE]	–	–	21	–	–	–	–	–	–	6.25 (≈ 20.4 µM)	–	–	–	–	–	–	–	–	–
